Measurements as given in ChEMBL document CHEMBL1138613, “1,5-Benzodiazepine inhibitors of HCV NS5B polymerase” (Bioorg Med Chem Lett, 2009).

Tests used:
Hepatitis C virus [1] = assay: Antiviral activity against HCV 1b in human HuH7cells by luciferase reporter replicon assay; assay type: functional, organism-based, Hepacivirus hominis; settings: genotype 1b, Huh-7
Hepatitis C virus [2] = assay: Inhibition of HCV 1b J4 recombinant NS5B Cdelta 21 polymerase overexpressed in Escherichia coli BL21 (DE3) assessed as [alpha33P]UTP incorporation by scintillation proximity analysis; set-up: species or system Hepatitis C virus subtype 1b
[3] = Cytotoxicity against human HuH7 cells after 5 days by ATPlite luminescence assay; assay type: cell-based, Huh-7
[4] = Apparent permeability from apical to basolateral side of human Caco-2 cells; assay type: ADME, cell-based
[5] = Selectivity index, ratio of CC50 for human HuH7 cells to EC50 for HCV 1b in human HuH7cells; assay type: functional, Huh-7
[6] = Inhibition of HCV NS5B polymerase; set-up: species or system Hepacivirus hominis

IC50 [6] [nM]	Structure (SMILES)	EC50 (Hepatitis C virus [1]) [nM]	IC50 (Hepatitis C virus [2]) [nM]	CC50 at 120 h [3] [nM]	Papp A→B [4] [×10⁻⁶ cm/s]	Selectivity Index [5]
–	CC(=O)N1c2cccc(O)c2NC2=C(C(=O)CC(C)(C)C2)C1c1ccc(Oc2ccccc2Br)cc1Cl (stereo unspecified)	7100	100	–	–	–
–	CC1(C)CC(=O)C2=C(C1)Nc1c(O)cccc1N(C(=O)c1ccco1)C2c1ccc(OCc2ccccc2)cc1F (stereo unspecified)	2200	75	16000	–	–
–	Cc1nc(C(=O)N2c3cccc(O)c3NC3=C(C(=O)CC(C)(C)C3)[C@@H]2c2ccc(OCc3ccccc3)cc2F)c(C)o1	270	29	28000	10.9	100
–	CC(=O)N1c2cccc(O)c2NC2=C(C(=O)CC(C)(C)C2)[C@@H]1c1ccc(Cl)cc1Cl	2420	–	–	–	–
100	O=C(O)/C(=C/c1ccc(Oc2ccccc2Br)cc1)NC(=O)c1ccccc1	–	–	–	–	–
–	CC(=O)N1c2ccccc2NC2=C(C(=O)CC(C)(C)C2)[C@@H]1c1ccc(OCc2ccccc2)c(Cl)c1	–	1000	–	–	–
–	CC(=O)N1c2cccc(O)c2NC2=C(C(=O)CC(C)(C)C2)C1c1ccc(Cl)cc1Cl (stereo unspecified)	3000	100	–	–	–
–	CC(=O)N1c2cccc(O)c2NC2=C(C(=O)CC(C)(C)C2)C1c1sccc1OCc1ccccc1 (stereo unspecified)	11000	180	–	–	–
–	CC(=O)N1c2cccc(O)c2NC2=C(C(=O)CC(C)(C)C2)C1C1CCCCC1 (stereo unspecified)	740	22000	–	–	–
–	CC1(C)CC(=O)C2=C(C1)Nc1c(O)cccc1N(C(=O)c1ccccn1)C2c1ccc(OCc2ccccc2)cc1F (stereo unspecified)	360	51	15000	–	–
–	Cc1nc(C(=O)N2c3cccc(O)c3NC3=C(C(=O)CC(C)(C)C3)C2c2ccc(OCc3ccccc3)cc2F)co1 (stereo unspecified)	1600	63	29000	–	–
–	CC1(C)CC(=O)C2=C(C1)Nc1c(O)cccc1N(C(=O)c1nccs1)C2c1ccc(OCc2ccccc2)cc1F (stereo unspecified)	1700	111	19000	–	–
–	CC(=O)N1c2cccc(Br)c2NC2=C(C(=O)CC(C)(C)C2)C1c1ccc(Cl)cc1Cl (stereo unspecified)	7800	6120	–	–	–
–	Cc1nc(C(=O)N2c3cccc(O)c3NC3=C(C(=O)CC(C)(C)C3)[C@H]2c2ccc(OCc3ccccc3)cc2F)c(C)o1	3600	27000	13000	–	–
–	CC1(C)CC(=O)C2=C(C1)Nc1c(O)cccc1N(C(=O)c1ccncn1)C2c1ccc(OCc2ccccc2)cc1F (stereo unspecified)	730	60	> 32000	–	–
–	CC1(C)CC(=O)C2=C(C1)Nc1c(O)cccc1N(C(=O)c1cccnc1)C2c1ccc(OCc2ccccc2)cc1F (stereo unspecified)	2300	109	20000	–	–
–	CC(C)C(=O)N1c2cccc(O)c2NC2=C(C(=O)CC(C)(C)C2)C1c1ccc(OCc2ccccc2)cc1F (stereo unspecified)	1300	123	14000	–	–
–	CC(=O)N1c2ccncc2NC2=C(C(=O)CC(C)(C)C2)C1c1ccc(Cl)cc1Cl (stereo unspecified)	> 32000	510	–	–	–
–	Cc1cc(C(=O)N2c3cccc(O)c3NC3=C(C(=O)CC(C)(C)C3)C2c2ccc(OCc3ccccc3)cc2F)nn1C (stereo unspecified)	1000	50	25000	–	–
–	CC(=O)N1c2cccc(O)c2NC2=C(C(=O)CC(C)(C)C2)C1c1ccco1 (stereo unspecified)	43000	21000	–	–	–
–	CC1(C)CC(=O)C2=C(C1)Nc1c(O)cccc1N(C(=O)c1cccc(F)n1)C2c1ccc(OCc2ccccc2)cc1F (stereo unspecified)	860	77	> 32000	–	–
–	CC(=O)N1c2cccc(O)c2NC2=C(C(=O)CC(C)(C)C2)C1c1nccn1C (stereo unspecified)	> 32000	> 32000	–	–	–
–	CC(=O)N1CC2=C(CC(C)(C)CC2=O)Nc2c(O)cccc21	> 32000	> 32000	–	–	–
–	CC(=O)N1c2cccc(O)c2NC2=C(C(=O)CC(C)(C)C2)C1c1ccc(Oc2ccccc2)cc1Cl (stereo unspecified)	9900	160	–	–	–
–	Cc1cccc(C(=O)N2c3cccc(O)c3NC3=C(C(=O)CC(C)(C)C3)C2c2ccc(OCc3ccccc3)cc2F)n1 (stereo unspecified)	500	70	18000	–	–
–	CC1(C)CC(=O)C2=C(C1)Nc1c(O)cccc1N(C(=O)c1ccncc1)C2c1ccc(OCc2ccccc2)cc1F (stereo unspecified)	3300	86	76000	–	–

IC50 [6] [nM]	Structure (SMILES)	EC50 (Hepatitis C virus [1]) [nM]	IC50 (Hepatitis C virus [2]) [nM]	CC50 at 120 h [3] [nM]	Papp A→B [4] [×10⁻⁶ cm/s]	Selectivity Index [5]
–	Cc1cccc(C(=O)N2c3cccc(O)c3NC3=C(C(=O)CC(C)(C)C3)[C@H]2c2ccc(OCc3ccccc3)cc2F)n1	5700	> 11000	18000	–	–
–	CC(=O)N1c2cccc(O)c2NC2=C(C(=O)CC(C)(C)C2)C1c1ccc(Oc2c(F)cccc2Br)cc1Cl (stereo unspecified)	6300	120	–	–	–
–	CC(=O)N1c2cccc(O)c2NC2=C(C(=O)CC(C)(C)C2)C1c1ccc(OCc2ccccc2)cc1Cl (stereo unspecified)	1500	40	15000	–	–
17000	O=C(O)/C(=C/c1ccc(Oc2ccccc2)cc1)NC(=O)c1ccccc1	–	–	–	–	–
–	Cc1cc(C(=O)N2c3cccc(O)c3NC3=C(C(=O)CC(C)(C)C3)C2c2ccc(OCc3ccccc3)cc2F)no1 (stereo unspecified)	1800	120	45000	–	–
–	CC(=O)N1c2ncccc2NC2=C(C(=O)CC(C)(C)C2)C1c1ccc(Cl)cc1Cl (stereo unspecified)	> 32000	8040	–	–	–
–	CC(=O)N1c2cccc(O)c2NC2=C(C(=O)CC(C)(C)C2)C1c1cn(C)c2ccccc12 (stereo unspecified)	> 32000	13000	–	–	–
–	Cc1nc(C(=O)N2c3cccc(O)c3NC3=C(C(=O)CC(C)(C)C3)C2c2ccc(OCc3ccccc3)cc2F)c(C)o1 (stereo unspecified)	570	79	28000	–	–
–	CC(=O)N1c2ccccc2NC2=C(C(=O)CC(C)(C)C2)C1c1ccc(Cl)cc1Cl (stereo unspecified)	> 32000	3100	–	–	–
–	Cc1cccc(C(=O)N2c3cccc(O)c3NC3=C(C(=O)CC(C)(C)C3)[C@@H]2c2ccc(OCc3ccccc3)cc2F)n1	400	89	21000	11.6	50
–	CC(=O)N1c2cccc(C)c2NC2=C(C(=O)CC(C)(C)C2)C1c1ccc(Cl)cc1Cl (stereo unspecified)	14600	4780	–	–	–
–	CC1(C)CC(=O)C2=C(C1)Nc1c(O)cccc1N(C(=O)c1cscn1)C2c1ccc(OCc2ccccc2)cc1F (stereo unspecified)	760	39	29000	–	–
–	CC(=O)N1c2cccc(O)c2NC2=C(C(=O)CC(C)(C)C2)[C@H]1c1ccc(Cl)cc1Cl	14500	14400	–	–	–
–	CC(=O)N1c2ccccc2NC2=C(C(=O)CC(C)(C)C2)C1c1ccc(OCc2ccccc2)cc1Cl (stereo unspecified)	2300	900	–	–	–
–	CC(C)C(=O)N1c2cccc(O)c2NC2=C(C(=O)CC(C)(C)C2)C1c1ccc(OCc2ccccc2)cc1Br (stereo unspecified)	2400	87	12000	–	–
–	CC(=O)N1c2cccc(O)c2NC2=C(C(=O)CC(C)(C)C2)C1c1ccccn1 (stereo unspecified)	> 32000	> 32000	–	–	–
–	CC(=O)N1c2cccc(C#N)c2NC2=C(C(=O)CC(C)(C)C2)C1c1ccc(Cl)cc1Cl (stereo unspecified)	15400	6970	–	–	–
–	CC(=O)N1c2ncncc2NC2=C(C(=O)CC(C)(C)C2)C1c1ccc(Cl)cc1Cl (stereo unspecified)	> 32000	510	–	–	–
–	Cc1cc(OCc2ccccc2)ccc1C1C2=C(CC(C)(C)CC2=O)Nc2c(O)cccc2N1C(=O)C(C)C (stereo unspecified)	1600	124	15000	–	–
–	CC(=O)N1c2ncnc(O)c2NC2=C(C(=O)CC(C)(C)C2)C1c1ccc(Cl)cc1Cl (stereo unspecified)	> 32000	> 32000	–	–	–
–	CC1(C)CC(=O)C2=C(C1)Nc1c(O)cccc1N(C(=O)c1cccc(Cl)n1)C2c1ccc(OCc2ccccc2)cc1F (stereo unspecified)	690	108	13000	–	–
–	Cc1nc(C(=O)N2c3cccc(O)c3NC3=C(C(=O)CC(C)(C)C3)C2c2ccc(OCc3ccccc3)cc2F)cs1 (stereo unspecified)	970	143	> 32000	–	–
30	O=C(O)/C(=C/c1ccc(Oc2c(F)cccc2Br)cc1)NC(=O)c1ccccc1	–	–	–	–	–
–	CC1(C)CC(=O)C2=C(C1)Nc1c(O)cccc1N(C(=O)c1ncn[nH]1)C2c1ccc(OCc2ccccc2)cc1F (stereo unspecified)	2400	21	> 32000	–	–
–	CC(C)C(=O)N1c2cccc(O)c2NC2=C(C(=O)CC(C)(C)C2)C1c1ccc(OCc2ccccc2)cc1Cl (stereo unspecified)	1500	154	17000	–	–
